Assay results from US11246929B2, “Combination of a protein kinase inhibitor and an additional chemotherapeutic agent” (Merck Patent GmbH, priority 2016, dated 2022).

Experiments:
Assay in all cases: SRB growth inhibition, 93 cell lines panel
Assay type in all cases: cell-based
MCF7 = settings: Homo sapiens; MCF7, breast; read-out: GI50 of etoposide (±Compound 1)
Method: (§1) 90 μl of cells, after a 48-hour pre-growth period, were treated by mixing with 10 μl of the compound-containing media (resulting in a final DMSO concentration of 0.1%).
(§2) This is the drug concentration causing a 50% reduction compared to the net protein increase in control cells during the drug incubation period. In other words, G150 is IC50 corrected for time zero. […] TGI was calculated from Ti=Tz. […] It was calculated as 100×[(Ti−Tz)/Tz]=−50.

SW620 = settings: Homo sapiens, SW-620; SW620, colon; read-out: GI50 of etoposide (±Compound 1)
Method: as §1, §2

SKOV3 = settings: Homo sapiens, SK-OV-3; SKOV3, ovary; read-out: GI50 of etoposide (±Compound 1)
Method: as §1, §2

CLS439 = settings: CLS439, bladder; read-out: GI50 of etoposide (±Compound 1)
Method: as §1, §2

RDES = settings: RD-ES, bone, read-out: GI50 of etoposide (±Compound 1)
Method: as §1, §2

MG63 = settings: Homo sapiens, MG-63; MG63, bone; read-out: GI50 of etoposide (±Compound 1)
Method: as §1, §2

CAKI1 = settings: Homo sapiens, CAKI-1; CAKI1, kidney; read-out: GI50 of etoposide (±Compound 1)
Method: as §1, §2

SKMEL28 = settings: Homo sapiens, SK-MEL-28; SKMEL28, skin; read-out: GI50 of etoposide (±Compound 1)
Method: as §1, §2

THP-1 = settings: Homo sapiens; THP-1, hematological; read-out: GI50 of etoposide (±Compound 1)
Method: as §1, §2

MDAMB231 = settings: Homo sapiens, MDA-MB-231; MDAMB231, breast; read-out: GI50 of etoposide (±Compound 1)
Method: as §1, §2

OVCAR4 = settings: Homo sapiens, OVCAR-4; OVCAR4, ovary; read-out: GI50 of etoposide (±Compound 1)
Method: as §1, §2

NCIH292 = settings: Homo sapiens, NCI-H292; NCIH292, lung; read-out: GI50 of etoposide (±Compound 1)
Method: as §1, §2

MINO = settings: Homo sapiens, hematological, read-out: GI50 of etoposide (±Compound 1)
Method: as §1, §2

J82 = settings: Homo sapiens; J82, bladder; read-out: GI50 of etoposide (±Compound 1)
Method: as §1, §2

WS15-NHL = settings: hematological, read-out: GI50 of etoposide (±Compound 1)
Method: as §1, §2

RAMOS = settings: Homo sapiens, hematological, read-out: GI50 of etoposide (±Compound 1)
Method: as §1, §2

HL-60 = settings: Homo sapiens; HL-60, hematological; read-out: GI50 of etoposide (±Compound 1)
Method: as §1, §2

A673 = settings: Homo sapiens; A673, muscle; read-out: GI50 of etoposide (±Compound 1)
Method: as §1, §2

PBMC = settings: hematological, read-out: GI50 of etoposide (±Compound 1)
Method: as §1, §2

MDAMB435 = settings: Homo sapiens, MDA-MB-435; MDAMB435, skin; read-out: GI50 of etoposide (±Compound 1)
Method: as §1, §2

A204 = settings: Homo sapiens; A204, muscle; read-out: GI50 of etoposide (±Compound 1)
Method: as §1, §2

NCIH358M = settings: NCI-H358M, lung, read-out: GI50 of etoposide (±Compound 1)
Method: as §1, §2

IGROV1 = settings: Homo sapiens, IGROV-1; IGROV1, ovary; read-out: GI50 of etoposide (±Compound 1)
Method: as §1, §2

MIAPACA2 = settings: Homo sapiens, MIA PaCa-2; MIAPACA2, pancreas; read-out: GI50 of etoposide (±Compound 1)
Method: as §1, §2

SKBR3 = settings: Homo sapiens, SK-BR-3; SKBR3, breast; read-out: GI50 of etoposide (±Compound 1)
Method: as §1, §2

PANC1005 = settings: Homo sapiens; PANC1005, pancreas; read-out: GI50 of etoposide (±Compound 1)
Method: as §1, §2

HS729 = settings: HS729, muscle; read-out: GI50 of etoposide (±Compound 1)
Method: as §1, §2

OVCAR3 = settings: Homo sapiens, OVCAR-3; OVCAR3, ovary; read-out: GI50 of etoposide (±Compound 1)
Method: as §1, §2

JIMT1 = settings: Homo sapiens, JIMT-1; JIMT1, breast; read-out: GI50 of etoposide (±Compound 1)
Method: as §1, §2

GRANTA-519 = settings: Homo sapiens; GRANTA-519, hematological; read-out: GI50 of etoposide (±Compound 1)
Method: as §1, §2

JAR = settings: placenta, read-out: GI50 of etoposide (±Compound 1)
Method: as §1, §2

COc1cc([C@@H]2c3cc4c(cc3[C@@H](O[C@@H]3O[C@@H]5CO[C@@H](C)O[C@H]5[C@H](O)[C@H]3O)[C@H]3COC(=O)[C@H]23)OCO4)cc(OC)c1O [Etoposide]
GI50 (MCF7): 1290 nM
GI50 (SW620): 302 nM
GI50 (SKOV3): 2990 nM
GI50 (CLS439): 965 nM
GI50 (RDES): 412 nM
GI50 (MG63): 1020 nM
GI50 (CAKI1): 520 nM
GI50 (SKMEL28): 1890 nM
GI50 (THP-1): 110 nM
GI50 (MDAMB231): 1940 nM
GI50 (OVCAR4): > 10000 nM
GI50 (NCIH292): 1650 nM
GI50 (MINO): 236 nM
GI50 (J82): 7930 nM
GI50 (WS15-NHL): 149 nM
GI50 (RAMOS): 204 nM
GI50 (HL-60): 120 nM
GI50 (A673): 1080 nM
GI50 (PBMC): > 10000 nM
GI50 (MDAMB435): 1140 nM
GI50 (A204): 286 nM
GI50 (NCIH358M): 3330 nM
GI50 (IGROV1): 1060 nM
GI50 (MIAPACA2): 689 nM
GI50 (SKBR3): 432 nM
GI50 (PANC1005): 2730 nM
GI50 (HS729): 730 nM
GI50 (OVCAR3): 2540 nM
GI50 (JIMT1): 17700 nM
GI50 (GRANTA-519): 247 nM
GI50 (JAR): 116 nM
